Source: patent US20240401144A2, “PRIMER-PROBE COMPOSITION, KIT, AND DETECTION METHOD” (ASCENTAWITS PHARMACEUTICALS, LTD., priority 2021, published 2024)

Legend:
Test in all cases: Ex vivo cytotoxicity assay, leukemia cell lines
Type in all cases: cell-based
[1] = tested on: MOLT-4 cell line; conditions: Homo sapiens
Description: (§1) Leukemia cell lines were suspended in RPMI medium supplemented with FBS (Biosera), while ALL PDX cells were cultured in QBSF medium (Quality Biological Inc.,) supplemented with Flt-3 ligand (20 ng/ml, BioNovus Life Sciences) or IL7 (10-20 ng/ml, Jomar Life Research). Cells were inoculated according to the optimal cell density and incubated for 3h or overnight (37° C., 5% CO2). PDX cells and leukemia cell lines were treated with OBI-3424 ([…]) or medium control for 48 or 72 h, respectively. Viability was determined using Alamar Blue reduction assay or Cell Titer-Glo Luminescent Cell Viability Assay (Promega). The half-maximal inhibitory concentration (IC50) was used to calculate the interpolation of nonlinear regression curves by GraphPad Prism 7 software.
(§2) The expression levels of AKR1C3 protein was determined by Western blot analysis. The ex vivo cytotoxicity of OBI-3424 was determined using CellTiter-Glo assay and calculated as 50% maximum inhibitory concentration (IC50).

[2] = tested on: Kasumi-1 cell line; conditions: Homo sapiens; Table 5: Kasumi-1, AML, 72 h; AKR1C3 expression Low
Description: as §1, §2

[3] = tested on: NOMO-1 cell line; conditions: Homo sapiens, AKR1C3 expression Medium
Description: as §1, §2

[4] = tested on: Jurkat, clone E6-1 cell line; conditions: Homo sapiens
Description: as §1, §2

[5] = tested on: P30/OHK cell line; conditions: Homo sapiens; Table 5: P30/OHK, T-ALL (pediatric), 72 h; AKR1C3 expression Low
Description: as §1, §2

[6] = tested on: P31/FUJ cell line; conditions: Homo sapiens; Table 5: P31/FUJ, AML, 72 h; AKR1C3 expression Low
Description: as §1, §2

[7] = tested on: P116 cell line; conditions: Homo sapiens
Description: as §1, §2

[8] = tested on: Reh cell line; conditions: Homo sapiens
Description: as §1, §2

[9] = tested on: ATN-1 cell line; conditions: Homo sapiens; Table 5: ATN-1, T-ALL (adult), 72 h; AKR1C3 expression Low
Description: as §1, §2

[10] = tested on: CCRF-CEM cell line; conditions: Homo sapiens
Description: as §1, §2

[11] = tested on: Mono-Mac-6 cell line; conditions: Homo sapiens; Table 5: Mono-Mac-6, AML-M5, 72 h; AKR1C3 expression Low
Description: as §1, §2

C[C@H](OP(=O)(N1CC1)N1CC1)c1ccc([N+](=O)[O-])c(Oc2cccc(C(=O)N(C)C)c2)c1 [OBI-3424]
IC50 ([1]; Table 4: MOLT-4, T-ALL, AKR1C3 expression Strong, CellTiter-Glo): 10 nM
IC50 ([1]; Table 5: MOLT-4, T-ALL, 72 h, AKR1C3 expression Medium): 10 nM
IC50 [2]: > 1000 nM
IC50 ([3]; Table 4: NOMO-1, AML (acute monocytic), CellTiter-Glo): 11 nM
IC50 ([3]; Table 5: NOMO-1, T-ALL (adult), 72 h): 11 nM
IC50 ([4]; Table 4: Jurkat, Clone E6-1, T-ALL (child), AKR1C3 expression Medium, CellTiter-Glo): 24 nM
IC50 ([4]; Table 5: Jurkat, clone E6-1, T-ALL, 72 h, AKR1C3 expression Low): 24 nM
IC50 [5]: > 1000 nM
IC50 [6]: > 1000 nM
IC50 ([7]; Table 4: P116, T-ALL (Jurkat mutant), AKR1C3 expression Medium, CellTiter-Glo): 84 nM
IC50 ([7]; Table 5: P116, Jurkat mutant, 72 h, AKR1C3 expression Low): 84 nM
IC50 ([8]; Table 4: Reh, BCP-ALL, AKR1C3 expression Medium, CellTiter-Glo): 3 nM
IC50 ([8]; Table 5: Reh, ALL (non-T, non-B), 72 h, AKR1C3 expression Low): 3 nM
IC50 [9]: > 1000 nM
IC50 ([10]; Table 4: CCRF-CEM, T-ALL (child), AKR1C3 expression Strong, CellTiter-Glo): 3.7 nM
IC50 ([10]; Table 5: CCRF-CEM, T-ALL, 72 h, AKR1C3 expression High): 3.7 nM
IC50 [11]: 29.8 nM
